Test results taken from US20240245780A1, “PHARMACEUTICAL COMPOSITIONS CONTAINING STABLE AMORPHOUS SOLID SOLUTIONS AND DISPERSIONS” (Eastman Chemical Company, priority 2021, published 2024).
Where two headings read alike, the source gives them in different places.

How the values were obtained:
[1] = Solubility study of PSD in heated SAIB, HPLC; assay type: physicochemical
Procedure: Analysis of drugs was performed by HPLC. […] Solubility was determined in three replicates for each drug.
SAIB was heated to 150° C. (RFX, DST, DLT, CYS, ITZ, SRL, APT and CBZ) or 130° C. (TAC and APZ), followed by addition of a known amount of the drug to dissolve in 30 min. Approximately, 100 mg of each sample were transferred to a 100-mL volumetric flask, and volume was made up with the mobile phase to dissolve the drug. The amount of dissolved drug was determined by validated HPLC.

[2] = cited from earlier work
[3] = JECFA 1996, including pediatric populations; cited from earlier work
[4] = SAIB temperature 150° C., 30 min, three replicates

Row | Compound | Increase in Solubility Relative to Water [1] | Solubility in SAIB [1, 4] | pKa [2] | further results
1 | O=C1CCc2ccc(OCCCCN3CCN(c4cccc(Cl)c4Cl)CC3)cc2N1 [Aripiprazole] |  |  |  | Solubility in SAIB [1]: 21.6 ± 2.6 mg/g
2 | CO[C@H]1/C=C/O[C@@]2(C)Oc3c(C)c(O)c4c(O)c(c5c(nc6cc(C)ccn65)c4c3C2=O)NC(=O)/C(C)=C\C=C\[C@H](C)[C@H](O)[C@@H](C)[C@@H](O)[C@@H](C)[C@H](OC(C)=O)[C@@H]1C [Rifaximin] |  |  | 7 | Solubility in SAIB (in words) [1]: high solubility
3 | NC(=O)N1c2ccccc2C=Cc2ccccc21 [Carbamazepine] | 532.3x | 76.5 ± 4.0 mg/g |  | Solubility in SAIB (in words) ([1]; SAIB at 130 or 150° C.): high solubility; Solubility in SAIB ([1]; SAIB temperature 150° C., 30 min, three replicates, listed as CBZ): 76.5 ± 4.0 mg/g
4 | Cc1nc(Nc2ncc(C(=O)Nc3c(C)cccc3Cl)s2)cc(N2CCN(CCO)CC2)n1 [Dasatinib] |  | insoluble |  | 
5 | C[C@@H](O[C@H]1OCCN(Cc2n[nH]c(=O)[nH]2)[C@H]1c1ccc(F)cc1)c1cc(C(F)(F)F)cc(C(F)(F)F)c1 [Aprepitant] | 55.7x |  | 10 | 
6 | C[C@@H]1CCO[C@H]2Cn3cc(C(=O)NCc4ccc(F)cc4F)c(=O)c(O)c3C(=O)N12 [Dolutegravir] |  | 1.7 ± 0.4 mg/g | 8 | 
7 | CCC(C)n1ncn(-c2ccc(N3CCN(c4ccc(OCC5COC(Cn6cncn6)(c6ccc(Cl)cc6Cl)O5)cc4)CC3)cc2)c1=O (stereo not shown) [Itraconazole] |  | insoluble |  | 
8 | sucrose acetate isobutyrate [SAIB] |  |  |  | log P of SAIB [2]: 6; permanent acceptable daily intake [3]: up to 20 mg/kg body weight

Further lines, with some results ahead:

Row | Increase in Solubility Relative to Water [1] | Solubility in SAIB [1, 4] | Compound | pKa [2] | further results
9 |  | 1.9 ± 0.0 mg/g | CO[C@H]1C[C@@H]2CC[C@@H](C)[C@@](O)(O2)C(=O)C(=O)N2CCCC[C@H]2C(=O)O[C@H]([C@H](C)C[C@@H]2CC[C@@H](O)[C@H](OC)C2)CC(=O)[C@H](C)/C=C(\C)[C@@H](O)[C@@H](OC)C(=O)[C@H](C)C[C@H](C)/C=C/C=C/C=C/1C [Sirolimus] | 10 | 
10 | 9591.7x |  | C=CC[C@@H]1/C=C(\C)C[C@H](C)C[C@H](OC)[C@H]2O[C@@](O)(C(=O)C(=O)N3CCCC[C@H]3C(=O)O[C@H](/C(C)=C/[C@@H]3CC[C@@H](O)[C@H](OC)C3)[C@H](C)[C@@H](O)CC1=O)[C@H](C)C[C@@H]2OC [Tacrolimus] | 10 | Solubility in SAIB (in words) ([1]; SAIB at 130 or 150° C.): high solubility; Solubility in SAIB ([1]; SAIB temperature 130° C., 30 min, three replicates, listed as TAC): 115.1 ± 2.3 mg/g; Solubility in SAIB ([1]; SAIB temperature 130° C., 30 min, three replicates, listed as Tracolimus): 115.1 ± 2.3 mg/g
